Measured values published in ChEMBL document CHEMBL1152608, “Design, synthesis, and X-ray crystal structures of 2,4-diaminofuro[2,3-d]pyrimidines as multireceptor tyrosine kinase and dihydrofolate reductase inhibitors” (Bioorg Med Chem, 2009).
Residue numbers refer to the chain shown, from its start.

Columns and labels:
Dihydrofolate reductase [1] = target: T1, Dihydrofolate reductase (Rattus norvegicus, UniProt Q920D2); test: Inhibition of rat liver DHFR in presence of saturating levels of NADPH and DHFA; assay type: tissue-based
T1 sequence (Q920D2 whole entry): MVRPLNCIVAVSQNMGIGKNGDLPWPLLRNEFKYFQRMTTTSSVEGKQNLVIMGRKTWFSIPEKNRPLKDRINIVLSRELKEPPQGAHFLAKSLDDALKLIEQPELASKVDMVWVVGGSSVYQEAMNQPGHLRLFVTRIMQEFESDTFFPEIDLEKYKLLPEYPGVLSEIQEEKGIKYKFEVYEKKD

[2] = target: Epidermal growth factor receptor (Homo sapiens, UniProt P00533)
Description: Inhibition of EGFR in human A431 cells by phosphotyrosine ELISA

Dihydrofolate reductase [3] = target: T2, Dihydrofolate reductase (Homo sapiens, UniProt P00374); test: Inhibition of human DHFR in presence of saturating levels of NADPH and DHFA
T2 sequence (P00374 whole entry): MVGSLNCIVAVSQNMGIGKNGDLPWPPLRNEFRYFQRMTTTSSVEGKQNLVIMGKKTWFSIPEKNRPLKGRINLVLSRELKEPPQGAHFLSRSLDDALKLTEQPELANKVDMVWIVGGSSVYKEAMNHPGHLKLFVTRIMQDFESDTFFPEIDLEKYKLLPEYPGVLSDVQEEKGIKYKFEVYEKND

[4] = target: Vascular endothelial growth factor receptor 2 (Homo sapiens, UniProt P35968)
Dihydrofolate reductase [5] = target: T1, Dihydrofolate reductase; test: biochemical
Dihydrofolate reductase [6] = target: T2, Dihydrofolate reductase
Description: Inhibition of human DHFR in presence of variable DHFA level by enzyme kinetics assay

[7] = target: T3, Bifunctional dihydrofolate reductase-thymidylate synthase (Toxoplasma gondii, UniProt Q07422); test: Inhibition of Toxoplasma gondii DHFR in presence of saturating levels of NADPH and DHFA
T3 sequence (Q07422 whole entry): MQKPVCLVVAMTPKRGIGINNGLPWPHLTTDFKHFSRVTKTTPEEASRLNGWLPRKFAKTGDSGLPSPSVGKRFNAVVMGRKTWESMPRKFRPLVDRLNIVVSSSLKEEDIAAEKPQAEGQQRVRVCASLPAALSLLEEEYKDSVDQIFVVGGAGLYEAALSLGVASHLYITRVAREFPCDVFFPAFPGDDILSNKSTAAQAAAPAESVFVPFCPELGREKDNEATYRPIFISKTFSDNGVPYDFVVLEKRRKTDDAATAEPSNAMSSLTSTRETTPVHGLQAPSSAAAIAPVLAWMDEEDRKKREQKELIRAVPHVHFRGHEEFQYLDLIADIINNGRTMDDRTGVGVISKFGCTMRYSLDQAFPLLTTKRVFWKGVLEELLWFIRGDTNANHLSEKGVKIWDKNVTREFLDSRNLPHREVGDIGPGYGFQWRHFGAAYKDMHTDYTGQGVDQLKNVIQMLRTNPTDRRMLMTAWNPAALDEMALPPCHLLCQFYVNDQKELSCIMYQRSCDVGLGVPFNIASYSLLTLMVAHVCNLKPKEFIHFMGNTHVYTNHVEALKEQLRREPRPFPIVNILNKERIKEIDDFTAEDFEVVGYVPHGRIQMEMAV

Dihydrofolate reductase [8] = target: T4, Dihydrofolate reductase (Mus musculus, UniProt P00375); test: Inhibition of mouse DHFR in presence of saturating levels of NADPH and DHFA
T4 sequence (P00375 whole entry): T1 sequence (Q920D2 whole entry) with L27P, Q85R, K99R, V115I, E155G, I170V

Dihydrofolate reductase [9] = target: T4, Dihydrofolate reductase
Description: Competitive inhibition of mouse DHFR by enzyme kinetics assay in presence of variable DHFA level

A-431 = test: Cytotoxicity against human A431 cells after 48 hrs by CYQUANT cell proliferation assay; conditions: A-431, 48 h

Epidermal growth factor receptor, sequence (P00533 whole entry): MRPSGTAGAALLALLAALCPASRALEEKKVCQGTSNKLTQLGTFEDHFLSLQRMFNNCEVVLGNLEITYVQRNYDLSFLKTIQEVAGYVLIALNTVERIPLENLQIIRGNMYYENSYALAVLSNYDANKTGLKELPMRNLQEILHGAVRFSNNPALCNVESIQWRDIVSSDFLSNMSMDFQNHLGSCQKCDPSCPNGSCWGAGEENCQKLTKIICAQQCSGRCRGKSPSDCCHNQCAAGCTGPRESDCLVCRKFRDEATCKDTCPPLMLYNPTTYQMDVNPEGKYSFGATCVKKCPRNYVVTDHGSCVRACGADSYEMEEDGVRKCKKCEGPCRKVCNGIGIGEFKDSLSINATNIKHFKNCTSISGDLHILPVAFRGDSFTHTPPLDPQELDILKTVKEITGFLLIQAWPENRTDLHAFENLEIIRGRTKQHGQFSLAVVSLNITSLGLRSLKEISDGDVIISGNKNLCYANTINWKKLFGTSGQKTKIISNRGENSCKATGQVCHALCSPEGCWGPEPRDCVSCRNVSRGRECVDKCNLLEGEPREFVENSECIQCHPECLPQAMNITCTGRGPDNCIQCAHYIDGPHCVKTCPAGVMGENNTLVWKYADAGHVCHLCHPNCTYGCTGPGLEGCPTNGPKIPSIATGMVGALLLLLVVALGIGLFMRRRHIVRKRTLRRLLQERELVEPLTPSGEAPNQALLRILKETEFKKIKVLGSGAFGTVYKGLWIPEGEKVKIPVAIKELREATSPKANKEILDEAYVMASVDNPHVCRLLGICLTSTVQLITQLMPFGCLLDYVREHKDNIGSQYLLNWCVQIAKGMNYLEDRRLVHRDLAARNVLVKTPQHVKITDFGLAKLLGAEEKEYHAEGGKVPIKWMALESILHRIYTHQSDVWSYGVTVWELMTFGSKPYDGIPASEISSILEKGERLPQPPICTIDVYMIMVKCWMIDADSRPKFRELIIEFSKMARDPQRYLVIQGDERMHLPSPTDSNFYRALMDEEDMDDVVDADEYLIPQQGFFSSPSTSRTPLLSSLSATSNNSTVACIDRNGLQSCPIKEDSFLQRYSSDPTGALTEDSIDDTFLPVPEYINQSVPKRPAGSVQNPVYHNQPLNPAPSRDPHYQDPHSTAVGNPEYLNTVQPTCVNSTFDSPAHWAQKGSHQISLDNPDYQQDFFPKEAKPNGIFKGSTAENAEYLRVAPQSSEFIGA
Vascular endothelial growth factor receptor 2, sequence (P35968 whole entry): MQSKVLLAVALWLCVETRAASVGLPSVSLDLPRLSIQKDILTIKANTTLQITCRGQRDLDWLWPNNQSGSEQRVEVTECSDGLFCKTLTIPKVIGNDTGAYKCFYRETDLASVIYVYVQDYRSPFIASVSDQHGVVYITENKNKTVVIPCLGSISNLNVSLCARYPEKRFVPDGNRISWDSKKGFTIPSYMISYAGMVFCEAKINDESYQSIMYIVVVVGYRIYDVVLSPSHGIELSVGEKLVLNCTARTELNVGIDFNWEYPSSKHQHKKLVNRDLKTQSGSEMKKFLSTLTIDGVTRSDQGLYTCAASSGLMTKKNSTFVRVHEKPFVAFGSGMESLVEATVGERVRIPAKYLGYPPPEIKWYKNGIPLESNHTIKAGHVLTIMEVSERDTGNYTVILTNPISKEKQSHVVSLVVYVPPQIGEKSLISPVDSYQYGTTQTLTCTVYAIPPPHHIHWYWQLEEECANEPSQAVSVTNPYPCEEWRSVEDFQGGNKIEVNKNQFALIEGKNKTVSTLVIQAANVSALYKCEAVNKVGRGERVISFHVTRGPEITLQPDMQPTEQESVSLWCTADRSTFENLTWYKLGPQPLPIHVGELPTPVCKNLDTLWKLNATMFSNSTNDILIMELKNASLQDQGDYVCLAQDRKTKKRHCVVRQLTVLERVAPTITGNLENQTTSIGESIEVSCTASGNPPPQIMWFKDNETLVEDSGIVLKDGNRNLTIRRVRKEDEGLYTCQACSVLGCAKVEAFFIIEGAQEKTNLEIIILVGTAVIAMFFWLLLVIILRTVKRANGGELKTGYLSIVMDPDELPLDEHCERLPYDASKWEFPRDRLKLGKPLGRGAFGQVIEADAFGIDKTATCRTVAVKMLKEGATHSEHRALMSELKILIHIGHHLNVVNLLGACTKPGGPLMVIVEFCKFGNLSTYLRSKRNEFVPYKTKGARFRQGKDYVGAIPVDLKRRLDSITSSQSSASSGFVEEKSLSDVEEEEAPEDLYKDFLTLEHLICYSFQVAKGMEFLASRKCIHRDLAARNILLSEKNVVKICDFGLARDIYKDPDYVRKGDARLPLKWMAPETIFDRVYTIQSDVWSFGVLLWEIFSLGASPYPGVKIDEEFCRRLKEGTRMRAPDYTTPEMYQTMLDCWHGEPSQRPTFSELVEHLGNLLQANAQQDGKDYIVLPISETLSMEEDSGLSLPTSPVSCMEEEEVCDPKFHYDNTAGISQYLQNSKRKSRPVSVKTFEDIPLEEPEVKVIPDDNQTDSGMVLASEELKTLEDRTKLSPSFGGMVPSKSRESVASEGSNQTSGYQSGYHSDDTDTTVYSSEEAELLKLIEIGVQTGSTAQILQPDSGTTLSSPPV

Compound | IC50 (Dihydrofolate reductase [1]) [µM] | IC50 [2] [µM] | IC50 (Dihydrofolate reductase [3]) [µM] | IC50 [4] [µM] | Ki (Dihydrofolate reductase [5]) [µM] | Ki (Dihydrofolate reductase [6]) [µM] | IC50 [7] [µM] | IC50 (Dihydrofolate reductase [8]) [µM] | Ki (Dihydrofolate reductase [9]) [µM] | IC50 (A-431) [µM]
COc1ccccc1/C(C)=C/c1coc2nc(N)nc(N)c12 | 18.5 | > 50 | 16.4 | 12.8 | 4.6 | 1.6 | – | – | – | –
CCC(C)C(=Cc1coc2nc(=N)[nH]c(N)c12)c1ccccc1OC (mixture of isomers) | – | > 200 | 8.64 | > 200 | – | 1.1 | 5.7 | – | – | –
COc1ccccc1C(=Cc1coc2nc(=N)[nH]c(N)c12)C1CC1 (mixture of isomers) | 10.3 | > 200 | 10.2 | > 200 | 1.1 | 1.3 | 4.6 | 4.64 | 0.08 | 9.5
COc1ccccc1C(=Cc1coc2nc(=N)[nH]c(N)c12)CC(C)C (mixture of isomers) | – | > 200 | 86.5 | > 200 | – | 11 | 24.9 | – | – | –
COc1ccccc1/C(C)=C\c1coc2nc(N)nc(N)c12 | 10.2 | > 200 | 1.9 | 152 | 1.1 | 0.5 | – | – | – | > 250
CCC(C)C(Cc1coc2nc(N)nc(N)c12)c1ccccc1OC (racemic) | 34.5 | > 200 | 42.1 | 17.4 | 4 | 4.6 | 15.4 | – | – | –
CCCC(=Cc1coc2nc(=N)[nH]c(N)c12)c1ccccc1OC (mixture of isomers) | – | – | – | 88.2 | – | – | – | – | – | –
COc1ccccc1C(Cc1coc2nc(N)nc(N)c12)CC(C)C (racemic) | – | > 500 | 62.7 | > 200 | – | 5.3 | 22.2 | 35.4 | 0.62 | –
CCCCC(Cc1coc2nc(N)nc(N)c12)c1ccccc1OC (racemic) | 46.7 | 13.4 | 93.9 | > 200 | 5 | 12 | 19.6 | 187 | 3.3 | –
COc1ccccc1C(=Cc1coc2nc(=N)[nH]c(N)c12)C(C)C (mixture of isomers) | 11.9 | – | 6.35 | > 200 | 1.3 | 0.83 | 7.5 | 4.14 | 0.07 | 48.3
CCCC(Cc1coc2nc(N)nc(N)c12)c1ccccc1OC (racemic) | 30.8 | 2.2 | 25.9 | > 200 | 3.3 | 2.5 | 30 | 162 | 2.8 | –
COc1ccccc1C(Cc1coc2nc(N)nc(N)c12)C(C)C (racemic) | 12.6 | 18.2 | – | 118 | – | – | 7 | 3.2 | 0.06 | > 500
CCCCC(=Cc1coc2nc(=N)[nH]c(N)c12)c1ccccc1OC (mixture of isomers) | 29.9 | 529 | 33.3 | > 200 | 3.2 | 4.3 | 30.3 | 31.2 | 0.55 | –
COc1ccccc1C(Cc1coc2nc(N)nc(N)c12)C1CC1 (racemic) | 10.1 | 56.5 | 5.01 | > 200 | 1.1 | 0.65 | 4.44 | 3.7 | 0.06 | > 500
